Laboratory results: patent US20110177161A1, “PHARMACEUTICAL COMPOSITIONS OF [5(S)-(2'-HYDROXYETHOXY)-20(S)-CAMPTOTHECIN” (DR. REDDY'S LABORATORIES LIMITED, priority 2007, published 2011)

Key:
[1] = tested on: Saos-2 cells over expressing functional BCRP#4; assay: cells; format: cell-based, human; conditions: Homo sapiens, SAOS-2, 144 h, read-out: BCRP mut#4 (IC50 (nM))
Procedure: (§1) The anticancer effect of 5(S)-(2′-hydroxyethoxy)-20(S)-camptothecin & 5(R)-(2′-hydroxyethoxy)-20(S)-camptothecin were evaluated versus the racemate 5(RS)-(2′-hydroxyethoxy)-20(S)-camptothecin on Saos-2 cells over expressing functional BCRP#4 and non-functional BCRP mut#10. The human osteosarcoma cell line, Saos-2, was obtained from ATCC (American Type Culture Collection, Cat#HTB-85, Manassas, Va.) and were maintained in DMEM containing 10% fetal bovine serum, 1% penicillin/streptomycin, and 2 mM glutamine. Saos-2 cells were transfected with either BCRP#4 to over express functional BCRP or BCRP#10 to over express non-functional BCRP transporter. The cells were plated in 96-well plates at a density of 1000 cells per each well in a 0.1 ml of medium and allowed to attach overnight. The next morning the medium was gently aspirated and serial dilutions of the compounds to be tested were added. The cells were incubated at 37° C. in a 5% CO2 incubator. After 6 days of exposure to the test drugs, 10µl of Alamar blue was added aseptically to each well and the plates were returned to the incubator for 6 hr. The amount of the fluorescent dye produced was measured on a Cytofluor.RTM. 2300 (Millipore, Bedford, Mass.) using an excitation wavelength of 530 nm and emission wavelength of 590 nm. The relative fluorescence units obtained were used to calculate the percentage growth at each concentration in relation to the untreated control values. From the percentage growth values the IC50 (inhibitory concentration required to inhibit the cell growth by 50% compared to control cells growth) values were derived.

[2] = tested on: Saos-2 cells over expressing non-functional BCRP mut#10; assay: cells; format: cell-based, human; conditions: Homo sapiens, SAOS-2, 144 h, read-out: BCRP mut#10 (IC50 (nM))
Procedure: as §1

[3] = tested on: 34 human cancer cell lines; assay: In vitro cell growth assay, Sulphorhodamine B (SRB); format: cell-based; conditions: 48 h exposure
Procedure: Cell proliferation was evaluated by Sulphorhodamine B (SRB) assay where the amount of dye bound to the cells after staining gives a measure of cell growth. Refer to: JNCI, vol 83, No. 11, Jun. 5, 1991, which is incorporated herein by reference.
Briefly, cells (34 human cancer cell lines represented by bladder, breast, CNS, colon, epidermoid, lung, ovarian, melanoma, prostate, renal and uterine cancers) were seeded on a 96-well cell culture plates at a concentration of 10,000 cells per well and incubated at 37 degree C. in a CO2 incubator. Twenty-four hours later, cells were treated with different concentrations of […] dissolved in DMSO to a final concentration of 0.05% in the culture medium and exposed for 48 h. Cells were fixed by adding ice-cold 50% trichloroacetic acid (TCA) and incubating for 1 h at 4° C. The plates were washed with distilled water, air dried and stained with SRB solution (0.4% wt/vol in 1% Acetic acid) for 10 min at room temperature. Unbound SRB was removed by washing thoroughly with 1% acetic acid and the plates were air-dried. The bound SRB stain was solubilized with 10 mM Tris buffer, and the optical densities were read on a spectrophotometric plate reader at a single wavelength of 515 nm. […] From the optical densities the percentage growths were calculated using the following formulae: […]

[4] = tested on: Human bone marrow mononuclear cells; assay: Human bone marrow assay (CFU-GM colonies); format: cell-based; conditions: human
Procedure: Methocult.TM. GF (Cat No: H4534, Poietics, Biowhittakar, USA) medium comprising Methycellulose in iscove's MDM, Fetal bovine serum, Bovine serum albumin, 2-Mercaptoethanol, L-Glutamine, rhStem cell factor, rhGM-CSF and rhIL-3 was used for the assay. Human bone marrow mononuclear cells (Cat No. 2M-125C, Poietics, Biowhittakar, USA) were mixed with Methocult GF and the cell density was adjusted to 3×10^5 cells/ml. From this preparation, 500 μL aliquots were made and […] of 20× drug solution or vehicle was added to each aliquot and mixed thoroughly. 100 μL of clonogenic medium was plated into each well and the plates were allowed to gel at 4° C. for 15 minutes. Plates were incubated at 37 degree C. in a fully humidified atmosphere of 5% CO2 in an incubator for 14 days. CFU-GM colonies were counted under an inverted microscope as aggregates of 50 cells or more. The percentage colony inhibition was calculated using the following formula: 100−[(number of colonies in drug treated wells/Number of colonies in control wells)×100].

Question: With `CC[C@@]1(O)C(=O)OCc2c1cc1n(c2=O)[C@H](OCCO)c2cc3ccccc3nc2-1` [5(R)-(2′-hydroxyethoxy)-20(S)-camptothecin, reference compound] as the compound, how does the IC50 [1] read?
Answer: The IC50 was > 2000 nM.

Question: What about the IC50 [2] of the same compound?
Answer: Its IC50 is 1300 nM.

Question: And the GI50 [3]?
Answer: Its GI50 is 14.6 µM.

Question: And the “Safety Margin GI90/GI50” value [4]?
Answer: Its value is 0.06.
